Patent publication US20120252803A1, “COMPOSITION AND METHOD FOR CONTROLLING ARTHROPOD PESTS” (SUMITOMO CHEMICAL COMPANY, LIMITED, priority 2009, published 2012)

How the values were obtained:
[1] = test system: Common cutworm (Spodoptela litura); assay: Test Example 1: pesticidal effect of artificial diet irrigation treatment on Common cutworm; assay type: in vivo; conditions: artificial diet irrigated with 2 mL test solution, fourth instar larvae, after 6 days
[2] = test system: Common cutworm (Spodoptela litura); assay: Test Example 2: pesticidal effect of artificial diet irrigation treatment on Common cutworm; assay type: in vivo; conditions: artificial diet irrigated with 2 mL test solution, fourth instar larvae, after 6 days
[3] = composition of the compound and esfenvalerate, Table 43
[4] = composition of the compound and fenpropathrin, Table 44
[5] = composition of the compound and esfenvalerate, Table 45
[6] = composition of the compound and fenpropathrin, Table 46

## FC(F)(F)c1ccc2oc(-c3ccncc3Cl)nc2c1 [Compound 18, 2-(3-chloropyridin-4-yl)-5-(trifluoromethyl)benzoxazole]
[1]; [3]
  pesticidal efficacy against Common cutworm (Spodoptela litura): high pesticidal efficacy
[1]; [4]
  pesticidal efficacy against Common cutworm (Spodoptela litura): high pesticidal efficacy

## FC(F)(F)COc1cnccc1-c1nc2cc(C(F)(F)F)ccc2o1 [Compound 39, 2-[3-(2,2,2-trifluoroethyl)oxypyridin-4-yl]-5-(trifluoromethyl)benzoxazole]
[2]; [5]
  pesticidal efficacy against Common cutworm (Spodoptela litura): high pesticidal efficacy
[2]; [6]
  pesticidal efficacy against Common cutworm (Spodoptela litura): high pesticidal efficacy

## CC(C)Oc1cnccc1-c1nc2cc(C(F)(F)F)ccc2o1 [Compound 70, 2-(3-isopropoxypyridin-4-yl)-5-(trifluoromethyl)benzoxazole]
[1]; [3]
  pesticidal efficacy against Common cutworm (Spodoptela litura): high pesticidal efficacy
[1]; [4]
  pesticidal efficacy against Common cutworm (Spodoptela litura): high pesticidal efficacy

## FC(F)(F)Sc1ccc2oc(-c3ccncc3Cl)nc2c1 [Compound 77, 2-(3-chloropyridin-4-yl)-5-(trifluoromethylthio)benzoxazole]
[1]; [3]
  pesticidal efficacy against Common cutworm (Spodoptela litura): high pesticidal efficacy
[1]; [4]
  pesticidal efficacy against Common cutworm (Spodoptela litura): high pesticidal efficacy

## CCc1cnccc1-c1nc2cc(OC(F)(F)F)ccc2o1 [Compound 109, 2-(3-ethylpyridin-4-yl)-5-(trifluoromethoxy)benzoxazole]
[1]; [3]
  pesticidal efficacy against Common cutworm (Spodoptela litura): high pesticidal efficacy
[1]; [4]
  pesticidal efficacy against Common cutworm (Spodoptela litura): high pesticidal efficacy

## CC(C)COc1cnccc1-c1nc2cc(C(F)(F)F)ccc2o1 [Compound 116, 2-(3-isobutoxypyridin-4-yl)-5-(trifluoromethyl)benzoxazole]
[2]; [5]
  pesticidal efficacy against Common cutworm (Spodoptela litura): high pesticidal efficacy
[2]; [6]
  pesticidal efficacy against Common cutworm (Spodoptela litura): high pesticidal efficacy

## CC(C)(C)COc1cnccc1-c1nc2cc(C(F)(F)F)ccc2o1 [Compound 117, 2-[3-(2,2-dimethylpropoxy)pyridin-4-yl]-5-(trifluoromethyl)benzoxazole]
[2]; [5]
  pesticidal efficacy against Common cutworm (Spodoptela litura): high pesticidal efficacy
[2]; [6]
  pesticidal efficacy against Common cutworm (Spodoptela litura): high pesticidal efficacy

## FC(F)(F)c1ccc2oc(-c3ccncc3-c3cccnc3)nc2c1 [Compound 128, 4-(5-trifluoromethyl-benzoxazole-2-yl)-[3,3′]bipyridinyl]
[1]; [3]
  pesticidal efficacy against Common cutworm (Spodoptela litura): high pesticidal efficacy
[1]; [4]
  pesticidal efficacy against Common cutworm (Spodoptela litura): high pesticidal efficacy

## FC(F)(F)c1cnc2oc(-c3ccncc3Cl)nc2c1 [Compound 139, 2-(3-chloropyridin-4-yl)-6-(trifluoromethyl)oxazolo[5,4-b]pyridine]
[1]; [3]
  pesticidal efficacy against Common cutworm (Spodoptela litura): high pesticidal efficacy
[1]; [4]
  pesticidal efficacy against Common cutworm (Spodoptela litura): high pesticidal efficacy

## CCc1cnccc1-c1nc2cc(C(F)(F)F)cnc2o1 [Compound 143, 2-(3-ethylpyridin-4-yl)-6-(trifluoromethyl)oxazolo[5,4-b]pyridine]
[1]; [3]
  pesticidal efficacy against Common cutworm (Spodoptela litura): high pesticidal efficacy
[1]; [4]
  pesticidal efficacy against Common cutworm (Spodoptela litura): high pesticidal efficacy

## CSc1cnccc1-c1nc2cc(C(F)(F)F)cnc2o1 [Compound 146, 2-(3-methylthiopyridin-4-yl)-6-(trifluoromethyl)oxazolo[5,4-b]pyridine]
[1]; [3]
  pesticidal efficacy against Common cutworm (Spodoptela litura): high pesticidal efficacy
[1]; [4]
  pesticidal efficacy against Common cutworm (Spodoptela litura): high pesticidal efficacy

## FC(F)(F)COc1cnccc1-c1nc2cc(C(F)(F)F)cnc2o1 [Compound 163]
[2]; [5]
  pesticidal efficacy against Common cutworm (Spodoptela litura): high pesticidal efficacy
[2]; [6]
  pesticidal efficacy against Common cutworm (Spodoptela litura): high pesticidal efficacy
